Laboratory results as given in the NIST ThermoML archive (doi:10.1016/j.fluid.2016.05.024).
± gives the expanded uncertainty stated by the source.

Assay: mn = molality of the nth substance listed, in mol/kg
Conditions: 87 kPa, Liquid, Vibrating tube method

CCn1cc[n+](C)c1.[Cl-] [1-ethyl-3-methylimidazolium chloride] + O
mass density [kg/m3]
Conditions | m1 = 0.0532 | m1 = 0.1024 | m1 = 0.1528 | m1 = 0.2049 | m1 = 0.2529 | m1 = 0.3082 | m1 = 0.3571 | m1 = 0.4077 | m1 = 0.459 | m1 = 0.5026
293.15 K | 998.82 ± 1 | 999.41 ± 1 | 1000.01 ± 1 | 1000.63 ± 1 | 1001.2 ± 1 | 1001.84 ± 1 | 1002.41 ± 1 | 1002.99 ± 1 | 1003.56 ± 1 | 1004.05 ± 1
298.15 K | 997.66 ± 1 | 998.23 ± 1 | 998.82 ± 1 | 999.43 ± 1 | 999.98 ± 1 | 1000.61 ± 1 | 1001.17 ± 1 | 1001.73 ± 1 | 1002.29 ± 1 | 1002.77 ± 1
303.15 K | 996.25 ± 1 | 996.81 ± 1 | 997.39 ± 1 | 997.98 ± 1 | 998.52 ± 1 | 999.14 ± 1 | 999.68 ± 1 | 1000.24 ± 1 | 1000.79 ± 1 | 1001.26 ± 1
308.15 K | 994.62 ± 1 | 995.17 ± 1 | 995.74 ± 1 | 996.32 ± 1 | 996.85 ± 1 | 997.46 ± 1 | 997.99 ± 1 | 998.53 ± 1 | 999.08 ± 1 | 999.54 ± 1
313.15 K | 992.79 ± 1 | 993.34 ± 1 | 993.9 ± 1 | 994.48 ± 1 | 995.01 ± 1 | 995.61 ± 1 | 996.13 ± 1 | 996.67 ± 1 | 997.21 ± 1 | 997.67 ± 1

CCn1cc[n+](C)c1.O=S(=O)([O-])O [1-ethyl-3-methylimidazolium hydrogen sulfate] + O
mass density [kg/m3]
Conditions | m1 = 0.0528 | m1 = 0.1003 | m1 = 0.1503 | m1 = 0.2034 | m1 = 0.253 | m1 = 0.303 | m1 = 0.3548 | m1 = 0.4046 | m1 = 0.453 | m1 = 0.5055
293.15 K | 1000.86 ± 1 | 1003.08 ± 1 | 1005.3 ± 1 | 1007.57 ± 1 | 1009.63 ± 1 | 1011.67 ± 1 | 1013.72 ± 1 | 1015.68 ± 1 | 1017.53 ± 1 | 1019.54 ± 1
298.15 K | 999.65 ± 1 | 1001.82 ± 1 | 1003.99 ± 1 | 1006.22 ± 1 | 1008.23 ± 1 | 1010.23 ± 1 | 1012.24 ± 1 | 1014.17 ± 1 | 1016 ± 1 | 1017.98 ± 1
303.15 K | 998.2 ± 1 | 1000.33 ± 1 | 1002.46 ± 1 | 1004.64 ± 1 | 1006.63 ± 1 | 1008.6 ± 1 | 1010.58 ± 1 | 1012.47 ± 1 | 1014.26 ± 1 | 1016.21 ± 1
308.15 K | 996.54 ± 1 | 998.63 ± 1 | 1000.73 ± 1 | 1002.87 ± 1 | 1004.82 ± 1 | 1006.76 ± 1 | 1008.7 ± 1 | 1010.58 ± 1 | 1012.34 ± 1 | 1014.25 ± 1
313.15 K | 994.68 ± 1 | 996.73 ± 1 | 998.8 ± 1 | 1000.91 ± 1 | 1002.83 ± 1 | 1004.74 ± 1 | 1006.66 ± 1 | 1008.5 ± 1 | 1010.24 ± 1 | 1012.13 ± 1
